Values quoted from earlier work, collected in patent US20190307734A1 (Zhuhai Beihai Biotech Co., Ltd., priority 2016, published 2019).

Tests used:
p-glycoprotein = p-glycoprotein (Homo sapiens, UniProt P08183); conditions: in vitro
[1] = tested on: cytochrome P450 3A4 (CYP3A4)
CYP 2C19 = CYP 2C19 (Homo sapiens, UniProt P33261); conditions: in vitro
[2] = not given; remark: listed apart in the source
CYP 2D6 = CYP 2D6 (Homo sapiens, UniProt P10635); conditions: in vitro
CYP 2C9 = CYP 2C9 (Homo sapiens, UniProt P11712); conditions: in vitro
Chain of CYP 2C9 (P11712 whole entry): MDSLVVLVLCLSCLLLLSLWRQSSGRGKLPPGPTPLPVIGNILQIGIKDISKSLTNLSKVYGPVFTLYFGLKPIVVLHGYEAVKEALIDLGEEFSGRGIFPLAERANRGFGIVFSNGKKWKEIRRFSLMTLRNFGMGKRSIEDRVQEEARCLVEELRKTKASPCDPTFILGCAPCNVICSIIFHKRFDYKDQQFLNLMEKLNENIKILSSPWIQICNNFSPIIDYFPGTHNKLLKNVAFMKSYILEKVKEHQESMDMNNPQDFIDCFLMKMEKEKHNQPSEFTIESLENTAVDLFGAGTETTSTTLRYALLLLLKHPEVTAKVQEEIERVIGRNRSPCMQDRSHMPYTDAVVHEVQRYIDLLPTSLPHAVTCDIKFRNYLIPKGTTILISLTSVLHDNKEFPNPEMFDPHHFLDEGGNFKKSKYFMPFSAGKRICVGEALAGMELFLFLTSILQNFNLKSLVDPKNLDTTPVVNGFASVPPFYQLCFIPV

Chain of CYP 2C19 (P33261 whole entry): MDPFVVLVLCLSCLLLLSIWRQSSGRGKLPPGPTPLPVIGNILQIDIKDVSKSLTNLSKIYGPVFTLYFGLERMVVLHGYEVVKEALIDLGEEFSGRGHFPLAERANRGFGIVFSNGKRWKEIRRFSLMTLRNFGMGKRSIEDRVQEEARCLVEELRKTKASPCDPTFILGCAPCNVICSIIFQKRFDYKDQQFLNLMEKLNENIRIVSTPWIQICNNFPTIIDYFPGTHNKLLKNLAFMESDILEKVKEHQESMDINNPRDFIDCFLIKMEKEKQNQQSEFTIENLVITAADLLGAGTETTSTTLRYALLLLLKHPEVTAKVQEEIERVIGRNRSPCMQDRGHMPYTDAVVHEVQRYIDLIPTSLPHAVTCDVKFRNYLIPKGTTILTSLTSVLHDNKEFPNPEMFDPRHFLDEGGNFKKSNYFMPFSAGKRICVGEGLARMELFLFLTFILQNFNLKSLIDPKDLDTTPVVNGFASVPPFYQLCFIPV
Chain of CYP 2D6 (P10635 whole entry): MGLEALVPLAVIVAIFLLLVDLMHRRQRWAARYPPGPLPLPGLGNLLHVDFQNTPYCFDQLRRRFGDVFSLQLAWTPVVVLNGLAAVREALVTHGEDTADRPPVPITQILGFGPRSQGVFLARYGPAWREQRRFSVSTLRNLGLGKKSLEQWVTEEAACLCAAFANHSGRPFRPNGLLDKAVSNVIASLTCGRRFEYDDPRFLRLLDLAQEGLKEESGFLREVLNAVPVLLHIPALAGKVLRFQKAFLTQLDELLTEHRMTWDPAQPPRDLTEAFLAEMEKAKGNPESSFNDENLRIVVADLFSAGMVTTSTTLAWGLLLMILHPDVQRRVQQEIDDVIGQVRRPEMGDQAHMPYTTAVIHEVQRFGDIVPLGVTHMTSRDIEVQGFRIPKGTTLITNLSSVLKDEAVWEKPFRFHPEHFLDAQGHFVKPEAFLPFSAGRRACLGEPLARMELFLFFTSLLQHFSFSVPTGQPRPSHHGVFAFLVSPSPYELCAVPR
Chain of p-glycoprotein (P08183 whole entry): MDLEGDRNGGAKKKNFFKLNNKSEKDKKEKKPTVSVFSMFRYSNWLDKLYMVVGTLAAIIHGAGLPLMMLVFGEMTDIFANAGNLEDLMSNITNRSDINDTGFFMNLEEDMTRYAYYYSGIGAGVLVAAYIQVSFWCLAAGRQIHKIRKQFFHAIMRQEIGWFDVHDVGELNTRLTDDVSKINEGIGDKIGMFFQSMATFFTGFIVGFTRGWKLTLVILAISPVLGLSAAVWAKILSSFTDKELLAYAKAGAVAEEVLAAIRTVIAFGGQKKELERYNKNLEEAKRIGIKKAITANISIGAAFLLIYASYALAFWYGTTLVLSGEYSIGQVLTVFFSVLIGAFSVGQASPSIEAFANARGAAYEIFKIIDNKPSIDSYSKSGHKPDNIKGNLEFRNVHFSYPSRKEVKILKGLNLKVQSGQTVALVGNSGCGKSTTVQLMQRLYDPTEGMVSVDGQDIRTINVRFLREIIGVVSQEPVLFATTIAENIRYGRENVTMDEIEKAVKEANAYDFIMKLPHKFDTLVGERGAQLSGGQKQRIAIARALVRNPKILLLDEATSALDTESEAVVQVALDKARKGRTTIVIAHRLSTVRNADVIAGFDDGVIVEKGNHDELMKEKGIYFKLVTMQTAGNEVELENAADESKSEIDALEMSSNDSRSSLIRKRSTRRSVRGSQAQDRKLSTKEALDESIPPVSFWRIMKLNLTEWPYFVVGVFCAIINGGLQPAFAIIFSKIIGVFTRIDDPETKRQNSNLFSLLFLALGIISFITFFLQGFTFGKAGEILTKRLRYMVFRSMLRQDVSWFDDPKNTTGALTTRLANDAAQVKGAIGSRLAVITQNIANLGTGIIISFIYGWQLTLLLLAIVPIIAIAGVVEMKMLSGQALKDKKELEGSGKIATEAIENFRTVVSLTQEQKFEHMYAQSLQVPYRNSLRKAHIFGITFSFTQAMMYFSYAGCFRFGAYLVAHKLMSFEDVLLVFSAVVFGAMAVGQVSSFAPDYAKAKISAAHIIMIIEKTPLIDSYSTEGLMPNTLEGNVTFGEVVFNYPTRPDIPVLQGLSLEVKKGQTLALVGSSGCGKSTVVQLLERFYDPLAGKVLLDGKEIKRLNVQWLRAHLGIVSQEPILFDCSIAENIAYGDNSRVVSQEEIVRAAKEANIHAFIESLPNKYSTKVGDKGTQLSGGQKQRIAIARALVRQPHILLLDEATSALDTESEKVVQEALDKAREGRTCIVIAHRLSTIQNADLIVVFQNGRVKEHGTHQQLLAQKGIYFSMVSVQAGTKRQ

Compound | solubility in aqueous solution, pH dependence (aqueous solution) | solubility in common pharmaceutical solvents (ethanol, propylene glycol, 40% hydroxypropyl beta cyclodextrin) | inhibition of p-glycoprotein (p-glycoprotein) | induction or inhibition of CYP3A4 enzyme ([1]; Hesketh et al., Cancer 2016) | inhibition of CYP 3A4 ([1]; in vitro) | solubility at physiological pH (pH 7.4) [mcg/ml] | solubility in water (water) | inhibition of CYP 2C19 (CYP 2C19) | absorption after oral dosing [2] | protein bound to human plasma (human plasma) [%] | inhibition of CYP 2D6 (CYP 2D6) | inhibition of CYP 2C9 (CYP 2C9)
C[C@@H](OC[C@@]1(c2ccccc2)CC[C@]2(CCC(=O)N2)CN1)c1cc(C(F)(F)F)cc(C(F)(F)F)c1.Cl [Rolapitant hydrochloride, rolapitant hydrochloride] | pH-dependent and is more soluble at lower pH | good solubility |  |  |  |  |  |  |  |  |  | 
C[C@@H](OC[C@@]1(c2ccccc2)CC[C@]2(CCC(=O)N2)CN1)c1cc(C(F)(F)F)cc(C(F)(F)F)c1 [Rolapitant, rolapitant] |  |  | did not inhibit | does not induce or inhibit | did not inhibit | < 4 | practically insoluble | did not inhibit | rapidly absorbed | 99.8 | did not inhibit | did not inhibit
